The results in this text go back to ChEMBL document CHEMBL1158325, “Norditerpenoids and diterpenoids from Salvia multicaulis with antituberculous activity” (1997).

Common to all, as to assay type: functional
For assay [1], the system named is Pseudomonas aeruginosa. Briefly: Antibacterial activity against Pseudomonas aeruginosa ATCC 9027 by disk diffusion method. A general note: A growth-free zone around the sample is the usual read-out of agar diffusion tests.
Assay [2] deals with Staphylococcus aureus. The assay can be described thus: Antibacterial activity against Staphylococcus aureus ATCC 6538 by disk diffusion method.
For assay [3], the system named is Pseudomonas aeruginosa. The assay can be described thus: Antibacterial activity against Pseudomonas aeruginosa ATCC 9027 by tube dilution method.
The subject of assay [4] is Klebsiella pneumoniae. Briefly: Antibacterial activity against Klebsiella pneumoniae ATCC 4352 by disk diffusion method.
Assay [5] has as its system Enterococcus faecalis. Briefly: Antibacterial activity against Enterococcus faecalis ATCC 29212 by disk diffusion method.
Assay [6] concerns Streptococcus. Briefly: Antibacterial activity against beta-haemolyticus Streptococcus isolate by tube dilution method.
For assay [7], the system named is Mycobacterium tuberculosis. Briefly: Antitubercular activity against Mycobacterium tuberculosis H37Rv after 21 days by broth microdilution method. To be noted: 504 h. A general note: Broth dilution looks for growth in wells or tubes with falling amounts of substance.
Assay [8] concerns Escherichia coli. Briefly: Antibacterial activity against Escherichia coli ATCC 8739 by disk diffusion method.
Assay [9] relates to Klebsiella pneumoniae. Briefly: Antibacterial activity against Klebsiella pneumoniae ATCC 4352 by tube dilution method.
Assay [10] deals with Streptococcus. Briefly: Antibacterial activity against beta-haemolyticus Streptococcus isolate by disk diffusion method.
Assay [11] has as its system Proteus mirabilis. Briefly: Antibacterial activity against Proteus mirabilis ATCC 14153 by disk diffusion method.
Assay [12] deals with Escherichia coli. Briefly: Antibacterial activity against Escherichia coli ATCC 8739 by tube dilution method.
Assay [13] relates to Staphylococcus aureus. The assay can be described thus: Antibacterial activity against Staphylococcus aureus ATCC 6538 by tube dilution method.
In assay [14] the test system is Proteus mirabilis. Briefly: Antibacterial activity against Proteus mirabilis ATCC 14153 by tube dilution method.
Assay [15] has as its system Enterococcus faecalis. The assay can be described thus: Antibacterial activity against Enterococcus faecalis ATCC 29212 by tube dilution method.

What is called MIC is the lowest concentration found to suppress growth. Lower therefore signals inhibition by little substance.

Converted amounts (≈) assume the structure as drawn. The source made the active and inactive calls. The rule behind the calls is not given here. Where only a bound is given, the exact number is not on record here.

On to `Cc1ccc2c(ccc3cc(C(C)C)c(O)cc32)c1C`, for which the “inhibition zone (IZ)” value in [1], in assay [4] and in assay [10] was >7 mm each time. The outcome in [2], in assay [5], in assay [8] and in assay [11] was inactive. The MIC in [3] was found to be 15.6 µg/mL (≈ 59 µM); in assay [6], 2 µg/mL (≈ 7.57 µM); in [7], 0.46 µg/mL (≈ 1.74 µM); in assay [9], 15.6 µg/mL (≈ 59 µM).

`COC1=C(C(C)C)C(=O)C2=C(C1=O)[C@@]1(C)CCCC(C)(C)C1=C[C@H]2O` returned a minimal inhibitory concentration (MIC) in assay [7] of 1.2 µg/mL (≈ 3.48 µM).

Regarding `COC1=C(C(C)C)C(=O)C2=C(C1=O)[C@@]1(C)CCCC(C)(C)C1=C[C@H]2OC(C)=O`, the result in [1], in assay [2], in assay [5], in assay [8], in assay [10] and in assay [11] was inactive. Further, the “inhibition zone (IZ)” value in assay [4] is listed as >7 mm. Further, the MIC in assay [7] was 0.89 µg/mL (≈ 2.3 µM); in assay [9] it was 7.2 µg/mL (≈ 18.6 µM).

In [7], `Nc1ccc(C(=O)O)c(O)c1` [AMINOSALICYLIC ACID] gave an MIC of 5 µg/mL (≈ 32.7 µM).

Consider `Cc1c(O)cc2c3c(ccc2c1C)C=C(C(C)C)C(=O)C3=O` [DEMETHYLMULTIORTHOQUINONE], for which the outcome in assay [1], in assay [2], in assay [4], in assay [5], in assay [10] and in assay [11] was inactive. Further, the minimum inhibitory concentration (MIC) in [12] stood at 4.6 µg/mL (≈ 15.6 µM); in assay [7], 1.2 µg/mL (≈ 4.08 µM). Also, in assay [8], the “inhibition zone (IZ)” value was >7 mm.

`CC[C@@H](CO)NCCN[C@@H](CC)CO` [ETHAMBUTOL] came in with an MIC in [7] of 5 µg/mL (≈ 24.5 µM).

`CCc1cc(C(N)=S)ccn1` [ETHIONAMIDE]: in assay [7], 5 µg/mL (≈ 30.1 µM) was the least that counted as inhibitory (MIC).

Compound `NNC(=O)c1ccncc1` [ISONIAZID] showed an MIC in assay [7] of 0.2 µg/mL (≈ 1.46 µM).

In the case of `NC[C@H]1O[C@H](O[C@H]2[C@H](O)[C@@H](O[C@H]3O[C@H](CO)[C@@H](O)[C@H](N)[C@H]3O)[C@H](N)C[C@@H]2N)[C@H](O)[C@@H](O)[C@@H]1O` [KANAMYCIN], inhibition of growth in assay [7] (MIC) required 5 µg/mL (≈ 10.3 µM).

In the case of `COc1cc2c(ccc3c(C)c(C)ccc32)cc1C(C)C` [MULTICAULIN], the outcome in assay [1], in assay [4] and in assay [5] was inactive. Besides, the MIC in assay [13] was found to be 0.2 µg/mL (≈ 0.718 µM); in assay [6] it was 0.2 µg/mL (≈ 0.718 µM); in [12], 0.7 µg/mL (≈ 2.51 µM); in assay [14], 1.4 µg/mL (≈ 5.03 µM); in [7] it was 5.6 µg/mL (≈ 20.1 µM). For the same compound, the “inhibition zone (IZ)” value in assay [2], in assay [8], in assay [10] and in [11] was >7 mm each time.

Turning to `COc1cc2c3c(ccc2c(C)c1C)C=C(C(C)C)C(=O)C3=O` [MULTIORTHOQUINONE], the “inhibition zone (IZ)” value in [1], in [2], in [5] and in assay [10] was >7 mm in each case. Further, the MIC was 0.1 µg/mL (≈ 0.324 µM) in [13]; 0.5 µg/mL (≈ 1.62 µM) in assay [3]; 0.1 µg/mL (≈ 0.324 µM) in [6]; 2 µg/mL (≈ 6.49 µM) in assay [15]; 2 µg/mL (≈ 6.49 µM) in [7]. Besides, the outcome in assay [4], in assay [8] and in assay [11] was inactive.

In assay [7], `CO[C@H]1/C=C/O[C@@]2(C)Oc3c(C)c(O)c4c(O)c(c(/C=N/N5CCN(C)CC5)c(O)c4c3C2=O)NC(=O)/C(C)=C\C=C\[C@H](C)[C@H](O)[C@@H](C)[C@@H](O)[C@@H](C)[C@H](OC(C)=O)[C@@H]1C` [RIFAMPIN] showed an MIC of 0.5 µg/mL (≈ 0.608 µM).

In the case of `C=C[C@]1(C)C=C2[C@@H](O)C[C@H]3C(C)(C)C(=O)CC[C@]3(C)[C@]2(O)C(=O)C1` [SALVIPIMARONE], the outcome in assay [1], in assay [2], in assay [4], in [5], in [8] and in assay [10] was inactive. The MIC is 3.6 µg/mL (≈ 10.8 µM) in assay [15], 3.6 µg/mL (≈ 10.8 µM) in [14] and 7.3 µg/mL (≈ 22 µM) in assay [7]. Further, the “inhibition zone (IZ)” value in [11] is listed as >7 mm.

In assay [7], `CN[C@@H]1[C@H](O[C@H]2[C@H](O[C@H]3[C@H](O)[C@@H](O)[C@H](N=C(N)N)[C@@H](O)[C@@H]3N=C(N)N)O[C@@H](C)[C@]2(O)C=O)O[C@@H](CO)[C@H](O)[C@H]1O` [STREPTOMYCIN] registered an MIC of 2 µg/mL (≈ 3.44 µM).
